Measured values taken from article PMC1082716, “Blockade of chemokine-induced signalling inhibits CCR5-dependent HIV infection in vitro without blocking gp120/CCR5 interaction” (Retrovirology, 2005).

How the values were obtained:
CXCR4 = biological target: T1, CXCR4 (Homo sapiens, UniProt P61073); assay: Specific binding of biotinylated gp120:V3(IIIb) peptide to Jurkat cells; conditions: 100 μM biotinylated gp120:V3(IIIb); various concentrations of inhibitor; 10^6 cells in 100 μl, 4°C; triplicate
T1 construct: CXCR4, which is expressed on both THP-1 and Jurkat cells, but at higher levels on the T-cell line; endogenous in cells; host or cells: Jurkat T-cells (whole cells, 10^6 per well, 4°C)
T1 sequence (P61073 whole entry): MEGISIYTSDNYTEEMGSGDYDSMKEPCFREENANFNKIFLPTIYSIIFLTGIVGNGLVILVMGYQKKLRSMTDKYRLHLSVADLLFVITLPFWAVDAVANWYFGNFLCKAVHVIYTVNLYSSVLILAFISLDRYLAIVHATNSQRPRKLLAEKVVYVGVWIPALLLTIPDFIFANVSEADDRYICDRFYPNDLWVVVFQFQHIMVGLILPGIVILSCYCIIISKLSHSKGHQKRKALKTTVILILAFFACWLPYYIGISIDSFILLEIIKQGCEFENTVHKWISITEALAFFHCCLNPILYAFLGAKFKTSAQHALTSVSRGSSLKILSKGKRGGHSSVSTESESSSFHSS

[1] = system: SDF-1α induced chemotaxis; assay: SDF-1α induced chemotaxis (ChemoTx transwell); type: cell-based; conditions: 100 ng/ml SDF1α; various concentrations of inhibitor in both compartments; 5 × 10^4 cells per well; 2 h, 37°C; MTT; triplicate
Procedure: Figure 2 Effect of Peptide 3 on gp120:V3 loop peptide binding to cells. (a) The binding of 100 μM N-terminal biotinylated gp120:V3(IIIb) to THP-1 cells was measured in the presence of various concentrations of peptide 3. […] (b) Chemotaxis in response to 100 ng/ml SDF1α was measured in the presence of various concentrations of peptide 3. […] (e) As for (a) except that the effect of Peptide 3 on the binding of gp120:V3(BaL) to THP-1 cells was determined. (f) As for (b) except that the effect of Peptide 3 on chemotaxis induced by 25 ng/ml MIP1α was determined. All binding reactions were performed with 10^6 cells in 100 μl of binding medium at 4°C. Chemotaxis assays were performed with 5 × 10^4 cells per well. Values are mean ± SEM of triplicate determinations.
Chemotaxis experiments were performed essentially as previously described, using the ChemoTx disposable 96-well transwell migration plates, with PVP-free membrane (6 μm pore size). Chemoattractant (lower compartment) and cells upper compartment) were suspended in Gey's Balanced salt solution + 1 mg/ml BSA. […] Migration was allowed to proceed for 2 hours at 37°C. […] Each condition was determined in triplicate, and the number of cells migrating in the absence of chemoattractant was subtracted to determine the chemokine-dependent chemotaxis which was reported.

HIV = conditions: cited from earlier work
From the text: It has been proposed that this chemotactic signalling might play a role during HIV infection in vivo, possibly by recruiting susceptible T-cells to sites of viral replication. In other retroviruses envelope/receptor interactions are known to be mitogenic and this may facilitate nuclear translocation and integration of the provirus. In HIV, however, it is not known whether the ability to productively engage the chemokine receptors in this way plays any direct role in acute viral entry and subsequent productive infection of the target cell. […] Since BSCIs, such as Peptide 3, ...

[2] = system: chemokine-receptor-induced ERK activity; conditions: MEK inhibitor; ref [25]; cited from earlier work
From the text: (§1) It has been proposed that this chemotactic signalling might play a role during HIV infection in vivo, possibly by recruiting susceptible T-cells to sites of viral replication. In other retroviruses envelope/receptor interactions are known to be mitogenic and this may facilitate nuclear translocation and integration of the provirus. In HIV, however, it is not known whether the ability to productively engage the chemokine receptors in this way plays any direct role in acute viral entry and subsequent productive infection of the target cell.

HIV (IIIb) [3] = assay: HIV (IIIb) replication in Jurkat T-cells, supernatant reverse transcriptase activity; type: cell-based; conditions: HIV-1 IIIb, Jurkat; SDF1α 100 ng/ml; two weeks; average of six separate experiments
Procedure: HIV infection of Jurkat T-cells using the laboratory-adapted T-tropic isolate IIIb was monitored using two different assays. Firstly, Jurkat T-cells in 96-well plates were pre-treated with either Peptide 3, vehicle (as a negative control) or SDF1α (as a positive control) for 4 hours, then exposed to HIV virus (10^6 TCID50) and pulsed at 2–3 day intervals with Peptide 3, SDF1α or medium alone as appropriate. After two weeks in culture, the extent of viral infection was assayed by measuring the reverse transcriptase activity in the supernatant, as a measure of viral replication in the culture In six separate experiments, Peptide 3 (100 μM) had no effect on virus replication following HIV exposure (Fig 3a), while SDF1α inhibited reverse transcriptase activity by an average of 75%. No effect was seen on cell viability under any of the treatment conditions.
HIV-1 stocks were prepared in the following manner. HIV-1 IIIb (provided by the MRC AIDS Reagent Programme) was used to infect Jurkat T cells and the progression of infection was monitored using the reverse transcriptase assay for 10–14 days. […] Stocks of HIV-1 MN strain were prepared in a similar manner, except that H9 T cells were used and the progression of infection was monitored by immunofluoresence (because of the low RT activity) in this strain. […]

HIV strain MN = assay: HIV (MN) infection of THP-1 cells, p24gag immunofluorescence; type: cell-based, HIV-1; conditions: HIV strain MN; Peptide 3 100 μM, MIP1α 100 ng/ml, SDF1α 100 ng/ml; 72 h; p24gag immunofluorescence
Procedure: However, it was possible to assess HIV infectivity of THP-1 cells using high sensitivity immunofluorescent detection of p24^gag. THP-1 cells were differentiated with hydrocortisone and PMA, then treated with TNFα, resulting in adherent monolayers on glass chamber slides. The THP-1 cells were then treated with either Peptide 3 (100 μM), MIP1α (100 ng/ml) or SDF1α (100 ng/ml) as for the Jurkat cells. THP-1 cells were infected with HIV strain MN at a concentration previously validated to produce easily detectable infection and grown for 72 h prior to fixation and staining for p24^gag. In contrast to the findings with HIV strain IIIb infection of Jurkat T cells, Peptide 3 inhibited infection of THP-1 cells by more than 80% (Fig 3c), very similar to the effect of MIP1α.
THP-1 cells were differentiated prior to infection with hydrocortisone and PMA in 8-well chamber slides. Sixteen hours prior to infection, TNFα was added (100 ng/ml). Twelve hours later, the medium was aspirated and replaced with fresh medium containing the test peptides or chemokines as appropriate. After a further four hours, virus from the frozen stocks was adeed to the cells, which were the processed for immunofluoresence between 28 h and 72 h after infection.
Jurkat cells following HIV infection were attached to 8-well chamber slides (Becton-Dickinson) by spinning the slides using a plate rotor in a Labofuge centrifuge (Heraeus) at 3,000 × g for 5 minutes. Attached Jurkat cells or THP-1 cells were then fixed by dipping the slides into ice-cold 70% ethanol for 90 seconds. Non-specific binding was blocked by incubation with 3% fatty acid-free BSA in TBS for 1 hour at room temprature. Cells were incubated with the mouse monoclonal anti-HIV-1 p24^gag antibody EH12E1 (ref 38;AIDS Reagent Program, NIBSC) at 10 μg/ml in 3% BSA in TBS at room temperature overnight. Unbound antibody was removed with 3 × 3 min washes in PBS, and bound antibody was then fixed to the slide by incubation with 3.8% phosphate buffered formalin pH7.2 for 10 mins at room temperature, followed by 3 further 3 min washes in PBS. Bound antibody was visualised using donkey anti-mouse IgG FITC conjugate (715-095-150; Jackson Immunoresearch) at 30 μg/ml in 3% BSA/TBS + 1 ng/ml Hoescht 33342 for 6 hours at room temperature. Twelve fields of view (100× magnification) were captured from each well of the chamber slide using an Olympus Provis AX electronic microscope connected to a Power Macintosh 8500, running OpenLab image analysis software (Improvision), under both FITC illumination conditions (NIBA filter block; λex = 470–490 nm, dichroic mirror = 505 nm, λem = 515–550 nm) and UV illumination conditions (Chroma 31000; λex = 340–380 nm, dichroic mirror = 400 nm, λem = 435–485 nm). Images were acquired with a Hamamatsu C4742-05 monochrome digital camera with 10-bit depth in a 1280-1024 pixel field connected to a DIG Snapper frame grabber. The exposure time, amplifier gain and offset values were controlled by the OpenLab software and were held constant throughout the experiment. A background (an image captured without a slide under the objective) was digitally subtracted from every image. A threshold was then applied to each image which was the lowest threhold that detected <1% of the pixels of an image of uninfected cells stained under identical conditions. The number of objects exceeding this threshold in each field of view were counted. […]

HIV (IIIb) [4] = assay: HIV (IIIb) infection of Jurkat T-cells, p24gag immunofluorescence; type: cell-based; conditions: SDF1α 100 ng/ml, approximately 48 h after infection, 12 fields of view from each of two wells
Procedure: HIV infection of Jurkat T-cells was also monitored by high sensitivity quantitative immunofluoresence detection of viral p24^gag expression. Jurkat cells were infected with HIV in the presence or absence of Peptide 3 (100 μM) or SDF1α (100 ng/ml) as described above. Approximately 48 h after infection, the cells were attached to glass slides using a cytospin and then fixed by immersion in ice-cold 70% ethanol for 90 seconds. Expression of p24^gag was determined using quantitative immunofluoresence as previously described, except that the primary antibody was post-fixed to the section using paraformaldehyde to increase the sensitivity of the technique (see Methods). Viral infectivity was expressed as the number of cells stained for p24^gag expressed as a proportion of the total number of cells (detected using Hoechst 33342 nuclear dye). […]
Jurkat cells following HIV infection were attached to 8-well chamber slides (Becton-Dickinson) by spinning the slides using a plate rotor in a Labofuge centrifuge (Heraeus) at 3,000 × g for 5 minutes. […] A threshold was then applied to each image which was the lowest threhold that detected <1% of the pixels of an image of uninfected cells stained under identical conditions. The number of objects exceeding this threshold in each field of view were counted. […]

[5] = system: Gi-mediated signalling through chemokine receptors; conditions: ref [24]; cited from earlier work
From the text: as §1

c1cc(CN2CCCNCCNCCCNCC2)ccc1CN1CCCNCCNCCCNCC1 [AMD3100, reference compound]
Effect on binding of gp120:V3(IIIb) to Jurkat cells (CXCR4): blocked
Effect on SDF-1α induced chemotaxis [1]: blocked

N#CC(=C(/N)Sc1ccccc1N)/C(C#N)=C(/N)Sc1ccccc1N [Peptide U0126]
Effect on HIV infection in vitro (HIV; MEK inhibitor, ref [25]): block
Effect on chemokine-receptor-induced ERK activity [2]: block

SDF1α [reference compound]
Inhibition of reverse transcriptase activity (HIV (IIIb) [3]): 75%
Effect on HIV infection of THP-1 cells (in words) (HIV strain MN): no statistically significant effect
Inhibition of viral infectivity (p24gag) (HIV (IIIb) [4]): more than 80%

pertussis toxin
Effect on cellular infection with HIV in vitro (HIV; ref [24] (Guntermann), [25] (Montes; similar results)): block cellular infection with HIV in vitro
Effect on Gi-mediated signalling through chemokine receptors [5]: blocks

B1: MIP1α: chemokine used at 100 ng/ml (protein, UniProt P10147 24-92, looked up)
C-C motif chemokine 3: SLAADTPTACCFSYTSRQIPQNFIADYFETSSQCSKPGVIFLTKRSRQVCADPSEEWVQKYVSDLELSA
Effect on HIV infection of THP-1 cells (in words) (HIV strain MN): very similar
